In brackets after ≈: the same amount, converted by molar mass.
Experiments:
[1] = tested on: MRSA ATCC 43300; assay: MIC/MBC by broth dilution (CLSI); format: cell-based, Staphylococcus aureus; conditions: Staphylococcus aureus; for MBC: MRSA ATCC 43300, 99.9% of the bacteria killed; for MIC: MRSA ATCC 43300, broth dilution, 24 h, 37 °C, read-out: MIC
Description: (§1) The in vitro antimicrobial activity of the pleuromutilin derivatives was assessed against MRSA ATCC 43300, S. aureus ATCC 29213, S. aureus 144 and S. aureus AD3 according to the Clinical and Laboratory Standards Institute (CLSI). Tiamulin was used as a positive control drug. The results were summarized as the minimum inhibitory concentration (MIC) and the minimum bactericidal concentration (MBC) in Table 1 and Table 2. In addition, MIC results for the pleuromutilin derivatives against four Gram-negative bacteria are supplied in Tables S2 and S3.
(§2) The MIC and MBC values of the synthesized novel pleuromutilin derivatives against MRSA ATCC 43300, S. aureus ATCC 29213, S. aureus 144 and S. aureus AD3 were measured. Tiamulin was used as a positive control drug. The MIC and MBC values were manipulated by broth dilution according to the Clinical and Laboratory Standards (CLSI). Each compound to be measured was dissolved in a solution of 95% deionized water, 2.5% dimethyl sulfoxide (DMSO) and 2.5% Tween-80 with a concentration of 1280 µg/mL. Subsequently, serial twofold dilutions were made in a concentration range from 64 µg/mL to 0.0625 µg/mL. The working bacterial suspension was inoculated into each well, which provided the final inoculum density of 5 × 10^5 CFU/mL. Three parallel experiments were performed for each compound.
(§3) Overall, 25 µL of the bacterial solution from the wells with no obvious bacterial growth was inoculated on MH agar plates. Then, the inoculated MH agar plates were further cultured at 37 °C for 24 h.

[2] = tested on: S. aureus ATCC 29213; assay: MIC/MBC by broth dilution (CLSI); format: cell-based; conditions: Staphylococcus aureus; for MBC: S. aureus ATCC 29213; for MIC: S. aureus ATCC 29213, broth dilution, 24 h, 37 °C
Description: as §1, §2, §3

[3] = tested on: S. aureus 144; assay: MIC/MBC by broth dilution (CLSI); format: cell-based; conditions: Staphylococcus aureus; S. aureus 144 (clinical strain)
Description: as §1, §2, §3

[4] = tested on: S. aureus AD3; assay: MIC/MBC by broth dilution (CLSI); format: cell-based; conditions: Staphylococcus aureus, S. aureus AD3 (clinical strain)
Description: as §1, §2, §3

Row | Structure (SMILES) | MIC [1] [µg/mL] | melting point [°C] | MIC ([2]; ATCC29213) [µg/mL] | MIC [3] [µg/mL] | MIC [4] [µg/mL] | MIC ([4]; 24 h) [µg/mL] | MBC [1] [µg/mL] | MBC ([2]; ATCC29213) [µg/mL] | MBC [3] [µg/mL] | MBC [4] [µg/mL] | MBC ([2]; ATCC29213, 24 h) [µg/mL] | MBC ([4]; 24 h) [µg/mL]
1 | C=C[C@]1(C)C[C@@H](OC(=O)CSc2ccc(Nc3nc(Cl)nc4c3cnn4-c3ccc(OC(F)(F)F)cc3)cc2)[C@]2(C)[C@H](C)CC[C@]3(CCC(=O)[C@H]32)[C@@H](C)[C@@H]1O [Compound 23c, 22-[4-(6-Chloro-1-(4-(yrifluoromethoxy)Phenyl)-1H-pyrazolo[3,4-d]pyrimidine-4-yl)amino-Phenylsulfanyl]-22-deoxypleuromutilin] | 0.5 (≈ 0.626 µM) | 144 to 147 | 0.5 (≈ 0.626 µM) | 1 (≈ 1.25 µM) | 0.25 (≈ 0.313 µM) |  | 1 (≈ 1.25 µM) | 1 (≈ 1.25 µM) | 2 (≈ 2.51 µM) | 1 (≈ 1.25 µM) |  | 
2 | C=C[C@]1(C)C[C@@H](OC(=O)CSc2ccc(Nc3nc(Cl)nc4c3cnn4-c3ccc(CC)cc3)cc2)[C@]2(C)[C@H](C)CC[C@]3(CCC(=O)[C@H]32)[C@@H](C)[C@@H]1O [Compound 16c, 22-[4-(6-Chloro-1-(4-ethylphenyl)-1H-pyrazolo[3,4-d]pyrimidine-4-yl)amino-Phenylsulfanyl]-22-deoxypleuromutilin] | > 64 | 97 to 99 | > 64 | > 64 | > 64 |  |  |  |  |  |  | 
3 | C=C[C@]1(C)C[C@@H](OC(=O)CNc2nc(Cl)nc3c2cnn3-c2ccc(F)c(F)c2)[C@]2(C)[C@H](C)CC[C@]3(CCC(=O)[C@H]32)[C@@H](C)[C@@H]1O [Compound 22b, 22-[(6-Chloro-1-(3,4-difluorophenyl)-1H-pyrazolo[3,4-d]pyrimidine-4-yl)amino]-22-deoxypleuromutilin] | 16 (≈ 24.9 µM) | 130 to 132 | 8 (≈ 12.5 µM) | 16 (≈ 24.9 µM) |  | 8 (≈ 12.5 µM) | > 64 |  | > 64 |  | > 64 | > 64
4 | C=C[C@]1(C)C[C@@H](OC(=O)CSc2ccc(Nc3nc(Cl)nc4c3cnn4-c3cccc(Cl)c3)cc2)[C@]2(C)[C@H](C)CC[C@]3(CCC(=O)[C@H]32)[C@@H](C)[C@@H]1O [Compound 24c, 22-[4-(6-Chloro-1-(3-chlorophenyl)-1H-pyrazolo[3,4-d]pyrimidine-4-yl)amino-Phenylsulfanyl]-22-deoxypleuromutilin] | > 64 | 121 to 124 | > 64 | > 64 | > 64 |  |  |  |  |  |  | 
5 | C=C[C@]1(C)C[C@@H](OC(=O)CSc2ccc(Nc3nc(Cl)nc4c3cnn4-c3cccc(OC)c3)cc2)[C@]2(C)[C@H](C)CC[C@]3(CCC(=O)[C@H]32)[C@@H](C)[C@@H]1O [Compound 17c, 22-[4-(6-Chloro-1-(3-methoxyphenyl)-1H-pyrazolo[3,4-d]pyrimidine-4-yl)amino-Phenylsulfanyl]-22-deoxypleuromutilin] | > 64 | 97 to 102 | > 64 | > 64 | > 64 |  |  |  |  |  |  | 
6 | C=C[C@]1(C)C[C@@H](OC(=O)CNc2nc(Cl)nc3c2cnn3-c2ccc3ccccc3c2)[C@]2(C)[C@H](C)CC[C@]3(CCC(=O)[C@H]32)[C@@H](C)[C@@H]1O [Compound 28b, 22-[(6-Chloro-1-(naphthalen-2-yl)-1H-pyrazolo[3,4-d]pyrimidine-4-yl)amino]-22-deoxypleuromutilin] | 32 (≈ 48.8 µM) | 123 to 125 | 32 (≈ 48.8 µM) | 32 (≈ 48.8 µM) | 32 (≈ 48.8 µM) |  | > 64 | > 64 | > 64 | > 64 |  | 
7 | C=C[C@]1(C)C[C@@H](OC(=O)CSc2ccc(Nc3nc(Cl)nc4c3cnn4-c3cc(Cl)cc(Cl)c3)cc2)[C@]2(C)[C@H](C)CC[C@]3(CCC(=O)[C@H]32)[C@@H](C)[C@@H]1O [Compound 26c, 22-[4-(6-Chloro-1-(3,5-dichlorophenyl)-1H-pyrazolo[3,4-d]pyrimidine-4-yl)amino-Phenylsulfanyl]-22-deoxypleuromutilin] | > 64 | 137 to 139 | > 64 | > 64 | > 64 |  |  |  |  |  |  | 
8 | C=C[C@]1(C)C[C@@H](OC(=O)CNc2nc(Cl)nc3c2cnn3-c2ccc(CC)cc2)[C@]2(C)[C@H](C)CC[C@]3(CCC(=O)[C@H]32)[C@@H](C)[C@@H]1O [Compound 16b, 22-[(6-Chloro-1-(4-ethylphenyl)-1H-pyrazolo[3,4-d]pyrimidine-4-yl)amino]-22-deoxypleuromutilin] | 32 (≈ 50.5 µM) | 101 to 103 | 32 (≈ 50.5 µM) | 32 (≈ 50.5 µM) | 16 (≈ 25.2 µM) |  | > 64 | > 64 | > 64 | > 64 |  | 
9 | C=C[C@]1(C)C[C@@H](OC(=O)CSc2ccc(Nc3nc(Cl)nc4c3cnn4-c3ccc(C)cc3)cc2)[C@]2(C)[C@H](C)CC[C@]3(CCC(=O)[C@H]32)[C@@H](C)[C@@H]1O [Compound 13c, 22-[4-(6-Chloro-1-(4-methylphenyl)-1H-pyrazolo[3,4-d]pyrimidine-4-yl)amino-phenylsulfanyl]-22-deoxypleuromutilin] | 8 (≈ 11 µM) | 101 to 105 | 8 (≈ 11 µM) | 16 (≈ 22 µM) |  | 4 (≈ 5.49 µM) | > 64 | > 64 | > 64 |  |  | > 64
10 | C=C[C@]1(C)C[C@@H](OC(=O)CNc2nc(Cl)nc3c2cnn3-c2ccc(OC(F)(F)F)cc2)[C@]2(C)[C@H](C)CC[C@]3(CCC(=O)[C@H]32)[C@@H](C)[C@@H]1O [Compound 23b, 22-[(6-Chloro-1-(4-(trifluoromethoxy)Phenyl)-1H-pyrazolo[3,4-d]pyrimidine-4-yl)amino]-22-deoxypleuromutilin] | > 64 |  | > 64 | > 64 | > 64 |  |  |  |  |  |  | 
11 | C=CC1(C)CC(OC(=O)CSc2ccc(N)cc2)C2(C)C(C)CCC3(CCC(=O)C32)C(C)C1O (stereo not drawn) [Compound 32, 22-(4-Amino-phenylsulfanyl)deoxypleuromutilin] | 0.0015 (≈ 0.00309 µM) |  | 0.0015 (≈ 0.00309 µM) | 0.003 (≈ 0.00618 µM) |  | 0.0015 (≈ 0.00309 µM) |  |  |  |  |  | 

Now from value to compound, other results behind:

Row | MIC [1] [µg/mL] | melting point [°C] | MIC ([2]; ATCC29213) [µg/mL] | MIC [3] [µg/mL] | MIC [4] [µg/mL] | MIC ([4]; 24 h) [µg/mL] | Structure (SMILES) | MBC [1] [µg/mL] | MBC ([2]; ATCC29213) [µg/mL] | MBC [3] [µg/mL] | MBC [4] [µg/mL] | MBC ([2]; ATCC29213, 24 h) [µg/mL] | MBC ([4]; 24 h) [µg/mL]
12 | 16 (≈ 25.6 µM) | 112 to 115 | 16 (≈ 25.6 µM) | 32 (≈ 51.3 µM) |  | 8 (≈ 12.8 µM) | C=C[C@]1(C)C[C@@H](OC(=O)CNc2nc(Cl)nc3c2cnn3-c2ccc(F)cc2)[C@]2(C)[C@H](C)CC[C@]3(CCC(=O)[C@H]32)[C@@H](C)[C@@H]1O [Compound 19b, 22-[(6-Chloro-1-(4-fluorophenyl)-1H-pyrazolo[3,4-d]pyrimidine-4-yl)amino]-22-deoxypleuromutilin] | > 64 | > 64 | > 64 |  |  | > 64
13 | > 64 | 107 to 110 | > 64 | > 64 | > 64 |  | C=C[C@]1(C)C[C@@H](OC(=O)CNc2nc(Cl)nc3c2cnn3-c2ccccc2F)[C@]2(C)[C@H](C)CC[C@]3(CCC(=O)[C@H]32)[C@@H](C)[C@@H]1O [Compound 18b, 22-[(6-Chloro-1-(2-fluorophenyl)-1H-pyrazolo[3,4-d]pyrimidine-4-yl)amino]-22-deoxypleuromutilin] |  |  |  |  |  | 
14 | > 64 | 95 to 100 | > 64 | > 64 | > 64 |  | C=C[C@]1(C)C[C@@H](OC(=O)CNc2nc(Cl)nc3c2cnn3-c2cc(C)cc(C)c2)[C@]2(C)[C@H](C)CC[C@]3(CCC(=O)[C@H]32)[C@@H](C)[C@@H]1O [Compound 15b, 22-[(6-Chloro-1-(3,5-dimethylphenyl)-1H-pyrazolo[3,4-d]pyrimidine-4-yl)amino]-22-deoxypleuromutilin] |  |  |  |  |  | 
15 | > 64 | 99 to 104 | > 64 | > 64 | > 64 |  | C=C[C@]1(C)C[C@@H](OC(=O)CNc2nc(Cl)nc3c2cnn3-c2cccc(OC)c2)[C@]2(C)[C@H](C)CC[C@]3(CCC(=O)[C@H]32)[C@@H](C)[C@@H]1O [Compound 17b, 22-[(6-Chloro-1-(3-methoxyphenyl)-1H-pyrazolo[3,4-d]pyrimidine-4-yl)amino]-22-deoxypleuromutilin] |  |  |  |  |  | 
16 | 16 (≈ 25.8 µM) |  | 32 (≈ 51.6 µM) | 32 (≈ 51.6 µM) | 16 (≈ 25.8 µM) |  | C=C[C@]1(C)C[C@@H](OC(=O)CNc2nc(Cl)nc3c2cnn3-c2ccc(C)cc2)[C@]2(C)[C@H](C)CC[C@]3(CCC(=O)[C@H]32)[C@@H](C)[C@@H]1O [Compound 13b, 22-[(6-Chloro-1-(4-methylphenyl)-1H-pyrazolo[3,4-d]pyrimidine-4-yl)amino]-22-deoxypleuromutilin] | 32 (≈ 51.6 µM) | > 64 | > 64 | > 64 |  | 
